# ChEMBL document CHEMBL3885861, “Open TG-GATES”
# Organism: Rattus norvegicus
# Experiment: Open TG-GATES - Regimen: Single
# Format: toxicity, organism-based, Sprague-Dawley
# Parameters: regimen Single, gender Male, age 6 weeks
# Conditions: in vivo, po, 100 mg/kg, route gavage, dose level Low; for APTT / Bas / Eos / Fbg / Hb / Ht / Lym / MCH / MCHC / MCV / Mono / Neu / PT / Plat / RBC / Ret / WBC: tissue Blood; for KIDNEY_L / KIDNEY_R / KIDNEY_TOTAL: tissue Kidney; for LIVER: tissue Liver; for A/G / ALP / ALT / AST / BUN / CRE / Ca / Cl / DBIL / GLC / IP / K / LDH / Na / PL / RALB / TBIL / TC / TG / TP / gamma-GTP: tissue Plasma
compound,measurement,setting,value
CCC1(c2ccccc2)C(=O)NC(=O)NC1=O [PHENOBARBITAL],TERMINAL_BW,3 h,225.5 g
same,APTT,3 h,20.6 s
same,Bas,3 h,0%
same,Eos,3 h,1%
same,Fbg,3 h,220.6 mg/dL
same,Hb,3 h,13.7 g/dL
same,Ht,3 h,37.8%
same,Lym,3 h,76.6%
same,MCH,3 h,22.2 pg
same,MCHC,3 h,36.1%
same,MCV,3 h,61.3 fL
same,Mono,3 h,3.4%
same,Neu,3 h,18.2%
same,PT,3 h,12 s
same,Plat,3 h,126.2 x10_4/uL
same,RBC,3 h,616.6 x10_4/ul
same,Ret,3 h,7.8%
same,WBC,3 h,85.2 x10_2/uL
same,KIDNEY_L,3 h,1 g
same,KIDNEY_R,3 h,1 g
same,KIDNEY_TOTAL,3 h,2.1 g
same,LIVER,3 h,10.1 g
same,A/G,3 h,1.6
same,ALP,3 h,991 IU/L
same,ALT,3 h,33.4 IU/L
same,AST,3 h,67.4 IU/L
same,BUN,3 h,8.4 mg/dL
same,CRE,3 h,0.3 mg/dL
same,Ca,3 h,10.7 mg/dL
same,Cl,3 h,101.4 meq/L
same,DBIL,3 h,0.064 mg/dL
same,GLC,3 h,179.4 mg/dL
same,IP,3 h,9.7 mg/dL
same,K,3 h,4.4 meq/L
same,LDH,3 h,168.4 IU/L
same,Na,3 h,139.8 meq/L
same,PL,3 h,156.6 mg/dL
same,RALB,3 h,3.3 g/dL
same,TBIL,3 h,0.1 mg/dL
same,TC,3 h,83.4 mg/dL
same,TG,3 h,83.8 mg/dL
same,TP,3 h,5.3 g/dL
same,gamma-GTP,3 h,1 IU/L
same,TERMINAL_BW,6 h,222.4 g
same,APTT,6 h,18 s
same,Bas,6 h,0.2%
same,Eos,6 h,0.8%
same,Fbg,6 h,237.8 mg/dL
same,Hb,6 h,13.7 g/dL
same,Ht,6 h,37.9%
same,Lym,6 h,79.8%
same,MCH,6 h,21.4 pg
same,MCHC,6 h,36.2%
same,MCV,6 h,59 fL
same,Mono,6 h,3.4%
same,Neu,6 h,15%
same,PT,6 h,11.8 s
same,Plat,6 h,124.2 x10_4/uL
same,RBC,6 h,643 x10_4/ul
same,Ret,6 h,8.1%
same,WBC,6 h,90.7 x10_2/uL
same,KIDNEY_L,6 h,1 g
same,KIDNEY_R,6 h,0.9 g
same,KIDNEY_TOTAL,6 h,1.9 g
same,LIVER,6 h,9.4 g
same,A/G,6 h,1.6
same,ALP,6 h,1012 IU/L
same,ALT,6 h,31.8 IU/L
same,AST,6 h,64.8 IU/L
same,BUN,6 h,7.6 mg/dL
same,CRE,6 h,0.4 mg/dL
same,Ca,6 h,10.7 mg/dL
same,Cl,6 h,100.4 meq/L
same,DBIL,6 h,0.074 mg/dL
same,GLC,6 h,191.8 mg/dL
same,IP,6 h,10.1 mg/dL
same,K,6 h,3.9 meq/L
same,LDH,6 h,173.2 IU/L
same,Na,6 h,139.6 meq/L
same,PL,6 h,138.8 mg/dL
same,RALB,6 h,3.3 g/dL
same,TBIL,6 h,0.1 mg/dL
same,TC,6 h,71 mg/dL
same,TG,6 h,68.8 mg/dL
same,TP,6 h,5.5 g/dL
same,gamma-GTP,6 h,0.8 IU/L
same,TERMINAL_BW,9 h,220.3 g
same,APTT,9 h,19.6 s
same,Bas,9 h,0.4%
same,Eos,9 h,0.8%
same,Fbg,9 h,215.6 mg/dL
same,Hb,9 h,13.8 g/dL
same,Ht,9 h,38.2%
same,Lym,9 h,74.6%
same,MCH,9 h,21.6 pg
same,MCHC,9 h,36.2%
same,MCV,9 h,59.6 fL
same,Mono,9 h,2.6%
same,Neu,9 h,20.6%
same,PT,9 h,12.4 s
same,Plat,9 h,124.9 x10_4/uL
same,RBC,9 h,640.6 x10_4/ul
same,Ret,9 h,7.4%
same,WBC,9 h,90 x10_2/uL
same,KIDNEY_L,9 h,1 g
same,KIDNEY_R,9 h,1 g
same,KIDNEY_TOTAL,9 h,1.9 g
same,LIVER,9 h,9.2 g
same,A/G,9 h,1.6
same,ALP,9 h,848.2 IU/L
same,ALT,9 h,25.2 IU/L
same,AST,9 h,60.4 IU/L
same,BUN,9 h,10.4 mg/dL
same,CRE,9 h,0.3 mg/dL
same,Ca,9 h,10.4 mg/dL
same,Cl,9 h,101 meq/L
same,DBIL,9 h,0.064 mg/dL
same,GLC,9 h,196.4 mg/dL
same,IP,9 h,8.7 mg/dL
same,K,9 h,3.9 meq/L
same,LDH,9 h,154.4 IU/L
same,Na,9 h,140.4 meq/L
same,PL,9 h,129.8 mg/dL
same,RALB,9 h,3.4 g/dL
same,TBIL,9 h,0.1 mg/dL
same,TC,9 h,64.4 mg/dL
same,TG,9 h,55.6 mg/dL
same,TP,9 h,5.5 g/dL
same,gamma-GTP,9 h,0.6 IU/L
same,TERMINAL_BW,24 h,234.5 g
same,APTT,24 h,21 s
same,Bas,24 h,0.8%
same,Eos,24 h,1%
same,Fbg,24 h,217.8 mg/dL
same,Hb,24 h,13.5 g/dL
same,Ht,24 h,37.2%
same,Lym,24 h,77.8%
same,MCH,24 h,22.2 pg
same,MCHC,24 h,36.2%
same,MCV,24 h,61.3 fL
same,Mono,24 h,2.6%
same,Neu,24 h,17.8%
same,PT,24 h,11.8 s
same,Plat,24 h,122.9 x10_4/uL
same,RBC,24 h,607.6 x10_4/ul
same,Ret,24 h,6.6%
same,WBC,24 h,114.9 x10_2/uL
same,KIDNEY_L,24 h,1.1 g
same,KIDNEY_R,24 h,1.1 g
same,KIDNEY_TOTAL,24 h,2.3 g
same,LIVER,24 h,12 g
same,A/G,24 h,1.6
same,ALP,24 h,1006.8 IU/L
same,ALT,24 h,39 IU/L
same,AST,24 h,70.6 IU/L
same,BUN,24 h,14.4 mg/dL
same,CRE,24 h,0.4 mg/dL
same,Ca,24 h,10.8 mg/dL
same,Cl,24 h,102.4 meq/L
same,DBIL,24 h,0.062 mg/dL
same,GLC,24 h,183.4 mg/dL
same,IP,24 h,7.3 mg/dL
same,K,24 h,3.8 meq/L
same,LDH,24 h,181.4 IU/L
same,Na,24 h,142 meq/L
same,PL,24 h,132.6 mg/dL
same,RALB,24 h,3.4 g/dL
same,TBIL,24 h,0.1 mg/dL
same,TC,24 h,64 mg/dL
same,TG,24 h,105.4 mg/dL
same,TP,24 h,5.6 g/dL
same,gamma-GTP,24 h,0.8 IU/L
